Values of other authors in patent US20120189739A1, “Naturally-Sweetened Reduced-Calorie Base Syrup Compositions and Compositions Sweetened Therewith” (IMPERIAL SUGAR COMPANY, priority 2010, published 2012).

Details: Prakash et al. 2008; Kinghorn et al. 1999

Compound	times sweeter than sucrose
C=C1C[C@@]23CC[C@H]4[C@@](C)(CCC[C@@]4(C)C(=O)O[C@@H]4O[C@H](CO)[C@@H](O)[C@H](O)[C@H]4O)[C@@H]2CC[C@]1(O[C@@H]1O[C@H](CO)[C@@H](O)[C@H](O)[C@H]1O[C@@H]1O[C@H](CO)[C@@H](O)[C@H](O)[C@H]1O)C3 [stevioside]	about 200 times
C=C1C[C@@]23CC[C@H]4[C@@](C)(CCC[C@@]4(C)C(=O)O[C@@H]4O[C@H](CO)[C@@H](O)[C@H](O)[C@H]4O)[C@@H]2CC[C@]1(O[C@@H]1O[C@H](CO)[C@@H](O)[C@H](O[C@@H]2O[C@H](CO)[C@@H](O)[C@H](O)[C@H]2O)[C@H]1O[C@@H]1O[C@H](CO)[C@@H](O)[C@H](O)[C@H]1O)C3 [rebaudioside A]	200-300 times
